We go through 17 compounds from PMC6102577, “Discovery of Pyrazolo[4,3-c]quinolines Derivatives as Potential Anti-Inflammatory Agents through Inhibiting of NO Production” (Molecules : A Journal of Synthetic Chemistry and Natural …, 2018).

Series [1] deals with LPS-stimulated NO production in RAW 264.7 cells. The series is described as follows: Inhibition of LPS-induced NO production (nitrite accumulation, Griess reaction) in RAW 264.7 cells. The format is cell-based. As to conditions: for inhibition at 10 µM: compound 10 μM, read-out: Percent Inhibition of NO Production at 10 μM. As for the experimental part: Treatment of Raw 264.7 cells with LPS (0.1 μg/mL) for 24 h induced NO production which were assessed by measuring the accumulation of nitrite, a stable metabolite of NO, in the media based on Griess reaction. […] However, compound 2a was also highly cytotoxic, in which the survival rate of RAW 264.7 cells was only 9% at a drug concentration of 10 μM. […] The position of substitution play an important role in which substitution at para-position is usually more favorable than its ortho- or meta- counterpart in the inhibitory activity on the LPS-induced NO production. […] Various substituted groups have been introduced on the para-position of the phenyl ring.
Raw 264.7 cells, purchased from Bioresource Collection and Research Center, Taiwan, were cultured in DMEM, supplemented with 5% fetal bovine serum, 100 units/mL of penicillin, 100 μg/mL of streptomycin, 2 mM L-glutamine, and 1 mM non-essential amino acids in a 10-cm plate at a density of 1 × 10^6 cells/mL, at 37 °C in a humidified atmosphere containing 5% CO2.
Nitrite was measured by adding 100 μL of the Griess reagent (1% sulfanilamide and 0.1% N-(1-naphthyl)ethylenediamine dihydrochloride in 5% phosphoric acid) to 100 μL of medium for 5 min. The optical density at 550 nm (OD550) was measured with a microplate reader. Concentrations were calculated by comparison with the OD550 of a standard solution of sodium nitrite prepared in culture medium.

Series [2] relates to RAW 264.7 cells. The series is described as follows: Cell viability (XTT method) of RAW 264.7 cells. As to conditions: compound 10 μM, 24 h, means ± S.D. The format is cell-based. The procedure: To evaluate whether the suppressive effect of compounds on NO production is related to cell viability, Raw 264.7 cells were treated with LPS for 24 h, and washed with 500 μL of phosphate buffer solution (PBS) before resuspended in 1 mL of culture medium. Cell viability tests were run in parallel with NO production assays with an initial cell density of 5 × 10^3 cells/well in the presence or absence of test compounds at 10 μM or 0.1% DMSO as control.

The nature of series [3]: NO-scavenging activity (sodium nitroprusside, nitrite by Griess reaction). As to conditions: SNP 2.5 mM, compound 10 μM, light, room temperature, 60 min. As for the experimental part: NO-scavenging effects of pyrazolo[4,3-c]quinolines 2i and 2m were measured according to the reported method. Sodium nitroprusside (SNP) (2.5 mM) was incubated alone or in combination with tested compound (10 μM) or 1400W(10 μM) in light at room temperature for 60 min.
To understand the inhibitory effects of compounds 2i and 2m on NO production, sodium nitroprusside (SNP) was freshly prepared at […] in PBS was incubated alone or in combination with 10 µM of the different compounds. SNP is an inorganic complex where NO is found as NO^+ and light irradiation is necessary for the release of NO. Therefore, incubation mixtures were incubated in light at room temperature, and nitrite levels were determined after 60 min by Griess reaction.
Figure 1 NO-scavenging effects of 1400W, compounds 2i and 2m. SNP solution (2.5 mM) in PBS was incubated alone or with tested compound (10 μM) or 1400W (10 μM) in the presence of light at room temperature for 60 min.

[4] abbreviates: Mus musculus, RAW264.7, 24 h, RAW 264.7 cells, LPS 0.1 μg/mL 24 h, means ± S.D., read-out: IC50 (inhibition of LPS-induced NO production).
Where [5] appears, read: Mus musculus, RAW264.7, training dataset, negative logarithm of IC50 values, read-out: Observed pIC50 (converted).
The mark [6] stands for this setting: Mus musculus, RAW264.7, RAW 264.7 cells, LPS 0.1 μg/mL 24 h, means ± S.D.
[7] abbreviates: Mus musculus, RAW264.7, RAW 264.7 cells, LPS 0.1 μg/mL 24 h, means ± S.D., read-out: IC50 (inhibition of LPS-induced NO production).
[8] abbreviates: Mus musculus, RAW264.7, test dataset, negative logarithm of IC50 values, read-out: Observed pIC50 (converted).

Molecules are shown by their SMILES. Several values for one entry are separate records, joined by “and”; a condition that tells them apart may be missing. Equal values may be shown once. Read-outs that look alike come from different tables or passages of the source.

Regarding `Nc1n[nH]c2c1c(Nc1ccccc1)nc1ccccc12` [Compound 2a, 3-Amino-4-phenylamino-1H-pyrazolo[4,3-c]quinoline], the IC50 in series [1] (setting [4]) is 390 ± 80 nM; in series [1] (setting [5]), 390 nM. In addition, the inhibition at 10 µM in series [1] (setting [6]) turned out to be 81.7 ± 0.99%. Moreover, the “Cell Survival Rate at 10 μM” value in series [2] is 9% and 9.09 ± 0.24%.
As to `CC(=O)c1ccc(Nc2nc3ccccc3c3[nH]nc(N)c23)cc1` [Compound 2l], the IC50 in series [1] (setting [4]) was 290 ± 80 nM; in series [1] (setting [5]) it was 290 nM. Further, the inhibition at 10 µM in series [1] (setting [6]) was determined as 102 ± 6.49%. In series [2], the “Cell Survival Rate at 10 μM” value is 87.80 ± 0.11%.
As to `CC(=N)NCc1cccc(CN)c1.Cl.Cl` [Compound 1400w, N-[[3-(Aminomethyl)-phenyl]methyl]-ethanimidamide dihydrochloride, reference compound], the inhibition at 10 µM in series [1] (setting [6]) turned out to be 102 ± 2.16%. In addition, the IC50 in series [1] (setting [7]) was 200 ± 20 nM. In addition, in series [2], the “Cell Survival Rate at 10 μM” value is 99.54 ± 2.51%. Further, the “NO-scavenging effect (levels of nitrite from SNP)” value in series [3] is listed as “did not affect the levels of nitrite”.
As to `COc1ccccc1Nc1nc2ccccc2c2[nH]nc(N)c12` [Compound 2c, 3-Amino-4-(2-methoxyphenylamino)-1H-pyrazolo[4,3-c]quinoline], the melting point was 210 to 211 °C. The IC50 in series [1] (setting [8]) is 490 nM. Moreover, in series [1] (setting [6]), the inhibition at 10 µM worked out at 82.2 ± 6.49%. Moreover, in series [1] (setting [7]), the IC50 is 490 ± 140 nM. Further, the “Cell Survival Rate at 10 μM” value in series [2] is 47.31 ± 1.67%.
In the case of `Nc1n[nH]c2c1c(Nc1cccc(O)c1)nc1ccccc12` [Compound 2d], the IC50 was 770 ± 230 nM in series [1] (setting [4]) and 770 nM in series [1] (setting [8]). For the same compound, the inhibition at 10 µM in series [1] (setting [6]) was 93.5 ± 7.57%. In addition, the “Cell Survival Rate at 10 μM” value in series [2] is listed as 81.70 ± 0.09%.
In the case of `Nc1n[nH]c2c1c(Nc1ccccc1O)nc1ccccc12` [Compound 2b], the IC50 in series [1] (setting [4]) was 420 ± 110 nM; in series [1] (setting [5]), 420 nM. Further, in series [1] (setting [6]), the inhibition at 10 µM was 103 ± 6.55%. Further, the “Cell Survival Rate at 10 μM” value in series [2] turned out to be 53.48 ± 1.53%.
Regarding `Cc1ccc(Nc2nc3ccccc3c3[nH]nc(N)c23)cc1` [Compound 2o], the results for the IC50 in series [1] (setting [4]) and in series [1] (setting [5]) were 470 ± 70 nM and 470 nM, respectively. The inhibition at 10 µM in series [1] (setting [6]) stood at 100 ± 3.02%. The “Cell Survival Rate at 10 μM” value in series [2] came out at 84.53 ± 0.04%.
As to `Nc1n[nH]c2c1c(Nc1ccc(Cl)cc1)nc1ccccc12` [Compound 2g], the figures for the IC50 in series [1] (setting [4]) and in series [1] (setting [5]) were 320 ± 50 nM and 320 nM, respectively. Further, in series [1] (setting [6]), the inhibition at 10 µM turned out to be 104 ± 6.71%. Besides, the “Cell Survival Rate at 10 μM” value in series [2] was 81.61 ± 0.14%.
For `Nc1ccc(Nc2nc3ccccc3c3[nH]nc(N)c23)cc1` [Compound 2j], the IC50 is 920 ± 50 nM in series [1] (setting [4]) and 920 nM in series [1] (setting [5]). Besides, in series [1] (setting [6]), the inhibition at 10 µM is 95.1 ± 3.75%. Also, in series [2], the “Cell Survival Rate at 10 μM” value turned out to be 90.26 ± 0.05%.
As for `Nc1n[nH]c2c1c(Nc1ccc([N+](=O)[O-])cc1)nc1ccccc12` [Compound 2p], the IC50 is 400 ± 90 nM in series [1] (setting [4]) and 400 nM in series [1] (setting [5]). The inhibition at 10 µM in series [1] (setting [6]) came to 89.11 ± 0.86%. Moreover, the “Cell Survival Rate at 10 μM” value in series [2] is 90.86 ± 0.32%.
For `Nc1n[nH]c2c1c(Nc1ccc(C(F)(F)F)cc1)nc1ccccc12` [Compound 2n], the IC50 in series [1] (setting [4]) is 360 ± 90 nM; in series [1] (setting [5]), 360 nM. Also, in series [1] (setting [6]), the inhibition at 10 µM came to 107 ± 2.48%. Further, the “Cell Survival Rate at 10 μM” value in series [2] stood at 69.14 ± 0.62%.
`COc1cc(Nc2nc3ccccc3c3[nH]nc(N)c23)cc(OC)c1OC` [Compound 2r, 3-Amino-4-(3,4,5-trimethoxyphenylamino)-1H-pyrazolo[4,3-c]quinoline] displayed a melting point of 161 to 162 °C. Besides, the IC50 in series [1] (setting [4]) is 350 ± 60 nM. Moreover, the IC50 in series [1] (setting [5]) is 350 nM. The inhibition at 10 µM in series [1] (setting [6]) amounted to 107 ± 2.58%. Moreover, the “Cell Survival Rate at 10 μM” value in series [2] is on record as 85.24 ± 0.04%.
Take `Nc1n[nH]c2c1c(Nc1ccc(F)cc1)nc1ccccc12` [Compound 2h]: the results for the IC50 in series [1] (setting [4]) and in series [1] (setting [8]) were 410 ± 70 nM and 410 nM, respectively. For the same compound, the inhibition at 10 µM in series [1] (setting [6]) is 94.8 ± 9.47%. For the same compound, the “Cell Survival Rate at 10 μM” value in series [2] is listed as 89.99 ± 0.02%.
As for `COc1ccc(Nc2nc3ccccc3c3[nH]nc(N)c23)cc1` [Compound 2k], the IC50 was 480 ± 140 nM in series [1] (setting [4]) and 480 nM in series [1] (setting [8]). In addition, in series [1] (setting [6]), the inhibition at 10 µM is 90.8 ± 11.9%. In addition, the “Cell Survival Rate at 10 μM” value in series [2] is reported as 90.57 ± 0.03%.
As to `CC(=O)c1cccc(Nc2nc3ccccc3c3[nH]nc(N)c23)c1` [Compound 2f, 3-Amino-4-(3-acetylphenylamino)-1H-pyrazolo[4,3-c]quinoline], the melting point is above 380 °C. The IC50 in series [1] (setting [4]) is 290 ± 60 nM. Moreover, the IC50 in series [1] (setting [8]) is 290 nM. For the same compound, the inhibition at 10 µM in series [1] (setting [6]) was found to be 99.1 ± 2.16%. Besides, the “Cell Survival Rate at 10 μM” value in series [2] was 94.37 ± 0.36%.
Consider `COc1cccc(Nc2nc3ccccc3c3[nH]nc(N)c23)c1` [Compound 2e, 3-Amino-4-(3-methoxyphenylamino)-1H-pyrazolo[4,3-c]quinoline], for which the melting point lay in the range of 184 to 186 °C. For the same compound, the IC50 in series [1] (setting [4]) amounted to 770 nM. For the same compound, the IC50 in series [1] (setting [8]) is 720 nM. Besides, the inhibition at 10 µM in series [1] (setting [6]) is 101 ± 1.31%. In series [1] (RAW 264.7 cells, LPS 0.1 μg/mL 24 h, means ± S.D., read-out: IC50 (inhibition of LPS-induced NO production)), the IC50 is 720 ± 180 nM. Further, the “Cell Survival Rate at 10 μM” value in series [2] is 94.32 ± 0.49%.
For the compound `CSc1ccc(Nc2nc3ccccc3c3[nH]nc(N)c23)cc1` [Compound 2q, 3-Amino-4-(4-methylthiophenylamino)-1H-pyrazolo[4,3-c]quinoline], the melting point fell in the range of 269 to 271 °C. The IC50 in series [1] (setting [4]) is 360 ± 80 nM. Further, in series [1] (setting [5]), the IC50 is 360 nM. For the same compound, in series [1] (setting [6]), the inhibition at 10 µM came to 102 ± 7.01%. In addition, in series [2], the “Cell Survival Rate at 10 μM” value amounted to 89.62 ± 0.05%.
